Test system: NCI-H841 complex tumor spheroid viability
Test: Anticancer human tumor NCI-H841 cell line growth inhibition;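 note: spheroids exposed to compounds for 7 days before readout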;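 for viability, T/C: 100% = DMSO vehicle control wells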
Details: for IC50: curve of first compound; for viability, T/C: stronger effect = lower value
Method in brief: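 Complex spheroids of malignant cells with endothelial cells and mesenchymal stem cells; agents alone or combined, from near clinical Cmax (or 10 microM if unknown) down in half-log steps, 0.25% DMSO final.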

[1] = second compound 30 pM, first compound 0.0316 µM
[2] = second compound 30 pM, first compound 0.1 µM
[3] = second compound 30 pM, first compound 0.316 µM
[4] = second compound 30 pM, first compound 1 µM
[5] = second compound 30 pM, first compound 3.16 µM
[6] = second compound 30 pM, first compound 10 µM
[7] = second compound 94.9 pM, first compound 0.0316 µM
[8] = second compound 94.9 pM, first compound 0.1 µM
[9] = second compound 94.9 pM, first compound 0.316 µM
[10] = second compound 94.9 pM, first compound 1 µM
[11] = second compound 94.9 pM, first compound 3.16 µM
[12] = second compound 94.9 pM, first compound 10 µM
[13] = second compound 0.0003 µM, first compound 0.0316 µM
[14] = second compound 0.0003 µM, first compound 0.1 µM
[15] = second compound 0.0003 µM, first compound 0.316 µM
[16] = second compound 0.0003 µM, first compound 1 µM
[17] = second compound 0.0003 µM, first compound 3.16 µM
[18] = second compound 0.0003 µM, first compound 10 µM
[19] = second compound 0.000949 µM, first compound 0.0316 µM
[20] = second compound 0.000949 µM, first compound 0.1 µM
[21] = second compound 0.000949 µM, first compound 0.316 µM
[22] = second compound 0.000949 µM, first compound 1 µM
[23] = second compound 0.000949 µM, first compound 3.16 µM
[24] = second compound 0.000949 µM, first compound 10 µM
[25] = second compound 0.003 µM, first compound 0.0316 µM
[26] = second compound 0.003 µM, first compound 0.1 µM
[27] = second compound 0.003 µM, first compound 0.316 µM
[28] = second compound 0.003 µM, first compound 1 µM
[29] = second compound 0.003 µM, first compound 3.16 µM
[30] = second compound 0.003 µM, first compound 10 µM

Row | Structure (SMILES) | IC50 (second compound 30 pM) [nM] | IC50 (second compound 94.9 pM) [nM] | IC50 (second compound 0.0003 µM) [nM] | IC50 (second compound 0.000949 µM) [nM] | IC50 (second compound 0.003 µM) [nM] | viability, T/C [1] [%] | viability, T/C [2] [%] | viability, T/C [3] [%] | viability, T/C [4] [%] | viability, T/C [5] [%] | viability, T/C [6] [%] | viability, T/C [7] [%] | viability, T/C [8] [%] | viability, T/C [9] [%] | viability, T/C [10] [%] | viability, T/C [11] [%] | viability, T/C [12] [%] | viability, T/C [13] [%] | viability, T/C [14] [%] | viability, T/C [15] [%] | further results
1 | CC(C)n1c(=O)n(C)c2cnc3cc(F)c(-c4ccc(OCCCN5CCCCC5)nc4)cc3c21 + COc1cc2c(cc1O)CCNC21CSC2c3c(OC(C)=O)c(C)c4c(c3C(COC1=O)N1C(O)C3Cc5cc(C)c(OC)c(O)c5C(C21)N3C)OCO4 | > 10000 | < 31.6 | < 31.6 | < 31.6 | < 31.6 | 83.8 | 79.7 | 78.9 | 79.1 | 79.1 | 69.5 | 40.4 | 34.5 | 32 | 25.9 | 26.2 | 18 | 3.09 | 3.02 | 2.66 | viability, T/C [16]: 2.5%; viability, T/C [17]: 2.79%; viability, T/C [18]: 2%; viability, T/C [19]: 2.82%; viability, T/C [20]: 3.14%; viability, T/C [21]: 3.38%; viability, T/C [22]: 2.32%; viability, T/C [23]: 2.06%; viability, T/C [24]: 1.47%; viability, T/C [25]: 0.11%; viability, T/C [26]: 0.12%; viability, T/C [27]: 0.11%; viability, T/C [28]: 0.1%; viability, T/C [29]: 0.1%; viability, T/C [30]: 0.15%
2 | CC1COCCN1c1cc(-c2ccnn2C)c2ccnc(-c3ccn[nH]3)c2n1 (stereo not given) + COc1cc2c(cc1O)CCNC21CSC2c3c(OC(C)=O)c(C)c4c(c3C(COC1=O)N1C(O)C3Cc5cc(C)c(OC)c(O)c5C(C21)N3C)OCO4 | < 31.6 | < 31.6 | < 31.6 | < 31.6 | < 31.6 | 26.5 | 3.12 | 1.47 | 0.86 | 1.08 | 1.34 | 4.85 | 0.92 | 0.73 | 0.72 | 0.85 | 1.34 | 0.85 | 0.44 | 0.46 | viability, T/C [16]: 0.56%; viability, T/C [17]: 0.59%; viability, T/C [18]: 0.82%; viability, T/C [19]: 0.34%; viability, T/C [20]: 0.28%; viability, T/C [21]: 0.24%; viability, T/C [22]: 0.15%; viability, T/C [23]: 0.06%; viability, T/C [24]: 0.21%; viability, T/C [25]: 0.12%; viability, T/C [26]: 0.12%; viability, T/C [27]: 0.11%; viability, T/C [28]: 0.1%; viability, T/C [29]: 0.11%; viability, T/C [30]: 0.17%
3 | COc1cc(C)[nH]c(=O)c1CN1CCc2c(Cl)cc(C(OC)C3COC3)c(Cl)c2C1=O (stereo not given) + COc1cc2c(cc1O)CCNC21CSC2c3c(OC(C)=O)c(C)c4c(c3C(COC1=O)N1C(O)C3Cc5cc(C)c(OC)c(O)c5C(C21)N3C)OCO4 | 9900 | 2520 | < 31.6 | < 31.6 | < 31.6 | 85.9 | 76.3 | 71.5 | 67.3 | 58.8 | 48.7 | 84.6 | 67.9 | 70.9 | 56.1 | 48.8 | 39.1 | 32.9 | 27.3 | 14.5 | viability, T/C [16]: 13.7%; viability, T/C [17]: 10.3%; viability, T/C [18]: 5.83%; viability, T/C [19]: 3.08%; viability, T/C [20]: 2.58%; viability, T/C [21]: 2.24%; viability, T/C [22]: 1.23%; viability, T/C [23]: 1.24%; viability, T/C [24]: 0.9%; viability, T/C [25]: 0.09%; viability, T/C [26]: 0.09%; viability, T/C [27]: 0.07%; viability, T/C [28]: 0.1%; viability, T/C [29]: 0.09%; viability, T/C [30]: 0.17%
4 | COc1ccc([C@@H](O)c2cc(-c3ncnc4cc(N5CCOCC5)ccc34)c(F)cc2Cl)nn1 + COc1cc2c(cc1O)CCNC21CSC2c3c(OC(C)=O)c(C)c4c(c3C(COC1=O)N1C(O)C3Cc5cc(C)c(OC)c(O)c5C(C21)N3C)OCO4 | 2950 | 1040 | < 31.6 | < 31.6 | < 31.6 | 102 | 99.6 | 96 | 86.7 | 47.5 | 4.01 | 99.4 | 94.5 | 86.4 | 50.3 | 16.4 | 1.62 | 31.4 | 34.4 | 16.9 | viability, T/C [16]: 4.22%; viability, T/C [17]: 0.62%; viability, T/C [18]: 0.12%; viability, T/C [19]: 2.69%; viability, T/C [20]: 2.87%; viability, T/C [21]: 1.76%; viability, T/C [22]: 0.09%; viability, T/C [23]: 0.02%; viability, T/C [24]: 0.14%; viability, T/C [25]: 0.13%; viability, T/C [26]: 0.12%; viability, T/C [27]: 0.14%; viability, T/C [28]: 0.16%; viability, T/C [29]: 0.19%; viability, T/C [30]: 0.27%

Reference: PubChem BioAssay AID1845213 (Molecular Pharmacology Branch, DTP, NCI, 2023)
